Experimental data published in ChEMBL document CHEMBL1137399, “Synthesis, structure-activity relationships, and antitumor studies of 2-benzoxazolyl hydrazones derived from alpha-(N)-acyl heteroaromatics” (J Med Chem, 2006).
The source made the active and inactive calls. The calls are words filed in the database; no cut-off is given here.

How the values were obtained:
HT-29 = assay: Antiproliferative activity against HT29 cells by SRB assay; type: functional, cell-based; conditions: Homo sapiens
CCRF-CEM = assay: Antiproliferative activity against CCRF-CEM cells by MTT assay; type: functional, cell-based; conditions: Homo sapiens
Burkitts lymphoma cell = assay: Antiproliferative activity against Burkitt cells by MTT assay; type: functional, cell-based; conditions: Homo sapiens
HeLa [1] = assay: Antiproliferative activity against HeLa cells by SRB assay; type: functional, cell-based; conditions: Homo sapiens
SF-295 = assay: Net cell kill against human SF295 cells by hollow fiber assay; type: functional, cell-based
HL-60 = assay: Ratio for antiproliferative activity against HL60/AR cells to wild type HL60 by MTT assay; type: functional, Homo sapiens
HeLa [2] = assay: Antiproliferative activity against HeLa-mdr1 cells overexpressing P-glycoprotein in presence of verapamil by SRB assay; type: functional, cell-based; conditions: Homo sapiens
OVCAR-3 = assay: Net cell kill against human OVCAR-3 cells by hollow fiber assay; type: functional, cell-based

C/C(=N\Nc1nc2ccccc2o1)c1cnc(C)cn1
IC50 (HT-29): 290 nM
IC50 (CCRF-CEM): 620 nM
IC50 (Burkitts lymphoma cell): 150 nM
IC50 (HeLa [1]): 370 nM

c1ccc(C/C(=N\Nc2nc3ccccc3o2)c2ccccn2)cc1
IC50 (HT-29): 219 nM
IC50 (CCRF-CEM): > 10000 nM
IC50 (Burkitts lymphoma cell): > 10000 nM
IC50 (HeLa [1]): 42 nM

C/C(=N\Nc1nc2ccccc2o1)c1ccc(C)nn1
IC50 (HT-29): 6770 nM
IC50 (CCRF-CEM): 2550 nM
IC50 (Burkitts lymphoma cell): 6270 nM
IC50 (HeLa [1]): 3390 nM

C/C(=N\Nc1nc2ccccc2o1)c1cccc[n+]1[O-]
IC50 (HT-29): 4780 nM
IC50 (Burkitts lymphoma cell): 27 nM
IC50 (HeLa [1]): 288 nM

C/C(=N\Nc1nc2ccccc2o1)c1cccnn1
IC50 (HT-29): 2640 nM
IC50 (CCRF-CEM): 720 nM
IC50 (Burkitts lymphoma cell): 1300 nM
IC50 (HeLa [1]): 1180 nM

C/C(=N\Nc1nc2ccccc2o1)c1cccnc1
IC50 (HT-29): > 100000 nM
IC50 (CCRF-CEM): > 100000 nM
IC50 (Burkitts lymphoma cell): > 100000 nM
IC50 (HeLa [1]): > 100000 nM

c1ccc(/C(=N\Nc2nc3ccccc3o2)c2ccccn2)cc1
IC50 (HT-29): 44 nM
IC50 (CCRF-CEM): 78 nM
IC50 (Burkitts lymphoma cell): 120 nM
IC50 (HeLa [1]): 43 nM

CC(C)/C(=N\Nc1nc2ccccc2o1)c1ccccn1
IC50 (HT-29): 645 nM
IC50 (CCRF-CEM): 21 nM
IC50 (Burkitts lymphoma cell): 14 nM
IC50 (HeLa [1]): 185 nM

C/C(=N\Nc1nc2ccccc2o1)c1ncccn1
IC50 (HT-29): 270 nM
IC50 (CCRF-CEM): 130 nM
IC50 (Burkitts lymphoma cell): 30 nM
IC50 (HeLa [1]): 180 nM

c1ccc(C(=NNc2nc3ccccc3o2)c2ccccn2)nc1
IC50 (HT-29): 6980 nM
IC50 (CCRF-CEM): 44 nM
IC50 (Burkitts lymphoma cell): 12 nM
IC50 (HeLa [1]): 156 nM

CCC/C(=N\Nc1nc2ccccc2o1)c1ccccn1
IC50 (HT-29): 851 nM
IC50 (CCRF-CEM): 6 nM
IC50 (Burkitts lymphoma cell): 6 nM
IC50 (HeLa [1]): 153 nM

CC(C)(C)/C(=N\Nc1nc2ccccc2o1)c1ccccn1
IC50 (HT-29): > 10000 nM
IC50 (CCRF-CEM): > 10000 nM
IC50 (Burkitts lymphoma cell): > 10000 nM
IC50 (HeLa [1]): > 10000 nM

C/C(=N\Nc1nc2ccccc2o1)c1ccncn1
IC50 (HT-29): 190 nM
IC50 (CCRF-CEM): 360 nM
IC50 (Burkitts lymphoma cell): 144 nM
IC50 (HeLa [1]): 500 nM

CC/C(=N\Nc1nc2ccccc2o1)c1ccccn1
IC50 (HT-29): 409 nM
IC50 (CCRF-CEM): 4 nM
IC50 (Burkitts lymphoma cell): 2 nM
IC50 (HeLa [1]): 52 nM

C/C(=N\Nc1nc2ccccc2o1)c1ccc2ccccc2n1
IC50 (HT-29): 7760 nM
IC50 (CCRF-CEM): 7040 nM
IC50 (Burkitts lymphoma cell): 5490 nM
IC50 (HeLa [1]): 4530 nM

C/C(=N\N(C)c1nc2ccccc2o1)c1ccccn1
IC50 (HT-29): > 50000 nM
IC50 (CCRF-CEM): > 50000 nM
IC50 (Burkitts lymphoma cell): > 50000 nM
IC50 (HeLa [1]): > 50000 nM

C/C(=N\Nc1nc2ccccc2o1)c1cc2ccccc2cn1
Activity (SF-295): Active
IC50 (HT-29): 40 nM
IC50 (CCRF-CEM): 140 nM
Ratio IC50 (HL-60): 1.7
Activity (HeLa [2]): inactive
Activity (OVCAR-3): Active
IC50 (Burkitts lymphoma cell): 30 nM
IC50 (HeLa [1]): 100 nM

C/C(=N\Nc1nc2ccccc2o1)c1ccccn1
IC50 (HT-29): 1430 nM
IC50 (CCRF-CEM): 24 nM
IC50 (Burkitts lymphoma cell): 5 nM
IC50 (HeLa [1]): 770 nM

C/C(=N\Nc1nc2ccccc2o1)c1cc(C)ncn1
IC50 (HT-29): 110 nM
IC50 (CCRF-CEM): 230 nM
IC50 (Burkitts lymphoma cell): 42 nM
IC50 (HeLa [1]): 210 nM

CC[C@]1(O)C[C@@H]2CN(CCc3c([nH]c4ccccc34)[C@@](C(=O)OC)(c3cc4c(cc3OC)N(C)[C@H]3[C@@](O)(C(=O)OC)[C@H](OC(C)=O)[C@]5(CC)C=CCN6CC[C@]43[C@@H]65)C2)C1
Activity (HeLa [2]): Active

C/C(=N\Nc1nc2ccccc2o1)c1nccc2ccccc12
IC50 (HT-29): 1930 nM
IC50 (CCRF-CEM): 350 nM
IC50 (Burkitts lymphoma cell): 200 nM
IC50 (HeLa [1]): 340 nM

c1ccc(/C(=N/Nc2nc3ccccc3o2)C2CC2)nc1
IC50 (HT-29): 20600 nM
IC50 (Burkitts lymphoma cell): 185 nM
IC50 (HeLa [1]): 4490 nM

C/C(=N\Nc1nc2ccccc2o1)c1nccnc1C
IC50 (HT-29): 2140 nM
IC50 (CCRF-CEM): 1300 nM
IC50 (Burkitts lymphoma cell): 900 nM
IC50 (HeLa [1]): 1860 nM
